Assay results from PubChem BioAssay AID256 (DTP/NCI, 2004).
Values joined by “and” are separate entries in the source; they are usually repeats but may differ in a detail not shown here. Equal entries are not always repeated. Inconclusive results and toxic doses are left out.

Tested on: CD2F1 mice, L1210 leukemia ip, survival T/C
Experiment: NCI In Vivo Anticancer Drug Screen. Data for tumor model L1210 Leukemia (intraperitoneal) in CD2F1 (CDF1) mice
Conditions: higher = longer survival
How it was run: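 Implant tumor; dose compound or vehicle; measure endpoint in both groups; report treated divided by control.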

[1] = endpoint: mean survival time, dose: 100.0 mg/kg/injection, schedule: Q04DX003 (ip), vehicle: saline with Tween-80
[2] = endpoint: mean survival time, dose: 50.0 mg/kg/injection, schedule: Q01DX009 (ip), vehicle: saline
[3] = endpoint: mean survival time, dose: 100.0 mg/kg/injection, schedule: Q01DX009 (ip), vehicle: saline
[4] = endpoint: mean survival time, dose: 200.0 mg/kg/injection, schedule: Q04DX003 (ip), vehicle: saline with Tween-80
[5] = endpoint: mean survival time, dose: 100.0 mg/kg/injection, schedule: Q01DX009 (ip), vehicle: Klucel (hydroxypropylcellulose) (HPC)

SMILES: Cc1ccc(S(=O)(=O)N/N=C/C(=O)O)cc1
- T/C (endpoint: mean survival time, dose: 25.0 mg/kg/injection, schedule: Q01DX009 (ip), vehicle: other): 117 % of control and 108 % of control
- T/C (endpoint: mean survival time, dose: 100.0 mg/kg/injection, schedule: Q01DX009 (ip), vehicle: other): 123 % of control
- T/C (endpoint: mean survival time, dose: 100.0 mg/kg/injection, schedule: Q04DX003 (ip), vehicle: Klucel (hydroxypropylcellulose) (HPC)): 150 % of control
- T/C [1]: 123 % of control
- T/C (endpoint: mean survival time, dose: 200.0 mg/kg/injection, schedule: Q01DX009 (ip), vehicle: other): 96 % of control and 102 % of control
- T/C (endpoint: mean survival time, dose: 400.0 mg/kg/injection, schedule: Q04DX003 (ip), vehicle: Klucel (hydroxypropylcellulose) (HPC)): 186 % of control
- T/C (endpoint: mean survival time, dose: 600.0 mg/kg/injection, schedule: Q04DX003 (ip), vehicle: Klucel (hydroxypropylcellulose) (HPC)): 114 % of control
- T/C (endpoint: mean survival time, dose: 600.0 mg/kg/injection, schedule: Q04DX003 (ip), vehicle: saline with Tween-80): 153 % of control
- T/C (endpoint: median survival time, dose: 1.0 mg/kg/injection, schedule: Q03HX024 (ip), vehicle: saline): 111 % of control
- T/C (endpoint: median survival time, dose: 2.0 mg/kg/injection, schedule: Q03HX016 (ip), vehicle: saline): 124 % of control
- T/C (endpoint: median survival time, dose: 2.0 mg/kg/injection, schedule: Q03HX024 (ip), vehicle: saline): 112 % of control
- T/C (endpoint: median survival time, dose: 4.0 mg/kg/injection, schedule: Q03HX008 (ip), vehicle: saline): 124 % of control
- T/C (endpoint: median survival time, dose: 4.0 mg/kg/injection, schedule: Q03HX024 (ip), vehicle: saline): 121 % of control
- T/C (endpoint: median survival time, dose: 8.0 mg/kg/injection, schedule: Q01DX009 (sc), vehicle: saline): 102 % of control
- T/C (endpoint: median survival time, dose: 16.0 mg/kg/injection, schedule: Q01DX009 (oral), vehicle: saline): 101 % of control
- T/C (endpoint: median survival time, dose: 16.0 mg/kg/injection, schedule: Q01DX009 (sc), vehicle: saline): 104 % of control
- T/C (endpoint: median survival time, dose: 32.0 mg/kg/injection, schedule: Q01DX001 (sc), vehicle: saline): 104 % of control
- T/C (endpoint: median survival time, dose: 32.0 mg/kg/injection, schedule: Q01DX009 (ip), vehicle: saline): 166 % of control
- T/C (endpoint: median survival time, dose: 32.0 mg/kg/injection, schedule: Q01DX009 (oral), vehicle: saline): 98 % of control
- T/C (endpoint: median survival time, dose: 32.0 mg/kg/injection, schedule: Q01DX009 (sc), vehicle: saline): 116 % of control
- T/C (endpoint: median survival time, dose: 32.0 mg/kg/injection, schedule: Q03HX016 (ip), vehicle: saline): 123 % of control
- T/C (endpoint: median survival time, dose: 32.0 mg/kg/injection, schedule: Q03HX024 (ip), vehicle: saline): 92 % of control
- T/C (endpoint: median survival time, dose: 64.0 mg/kg/injection, schedule: Q01DX001 (sc), vehicle: saline): 105 % of control
- T/C (endpoint: median survival time, dose: 64.0 mg/kg/injection, schedule: Q01DX009 (ip), vehicle: saline): 157 % of control
- T/C (endpoint: median survival time, dose: 64.0 mg/kg/injection, schedule: Q01DX009 (oral), vehicle: saline): 102 % of control
- T/C (endpoint: median survival time, dose: 64.0 mg/kg/injection, schedule: Q01DX009 (sc), vehicle: saline): 116 % of control
- T/C (endpoint: median survival time, dose: 64.0 mg/kg/injection, schedule: Q04DX003 (ip), vehicle: saline): 164 % of control
- T/C (endpoint: median survival time, dose: 128.0 mg/kg/injection, schedule: Q01DX001 (oral), vehicle: saline): 102 % of control
- T/C (endpoint: median survival time, dose: 128.0 mg/kg/injection, schedule: Q01DX001 (sc), vehicle: saline): 104 % of control
- T/C (endpoint: median survival time, dose: 128.0 mg/kg/injection, schedule: Q01DX009 (oral), vehicle: saline): 102 % of control
- T/C (endpoint: median survival time, dose: 128.0 mg/kg/injection, schedule: Q01DX009 (sc), vehicle: saline): 116 % of control
- T/C (endpoint: median survival time, dose: 128.0 mg/kg/injection, schedule: Q04DX003 (ip), vehicle: saline): 168 % of control
- T/C (endpoint: median survival time, dose: 128.0 mg/kg/injection, schedule: Q08DX002 (ip), vehicle: saline): 155 % of control
- T/C (endpoint: median survival time, dose: 256.0 mg/kg/injection, schedule: Q01DX001 (oral), vehicle: saline): 98 % of control
- T/C (endpoint: median survival time, dose: 256.0 mg/kg/injection, schedule: Q01DX001 (sc), vehicle: saline): 107 % of control
- T/C (endpoint: median survival time, dose: 256.0 mg/kg/injection, schedule: Q01DX009 (oral), vehicle: saline): 105 % of control
- T/C (endpoint: median survival time, dose: 512.0 mg/kg/injection, schedule: Q01DX001 (oral), vehicle: saline): 110 % of control
- T/C (endpoint: median survival time, dose: 512.0 mg/kg/injection, schedule: Q01DX001 (sc), vehicle: saline): 112 % of control
- T/C (endpoint: median survival time, dose: 1024.0 mg/kg/injection, schedule: Q01DX001 (oral), vehicle: saline): 123 % of control

SMILES: CC(C)N(CCCC#N)C(C)C
- T/C [2]: 96 % of control
- T/C [3]: 95 % of control
- T/C [1]: 97 % of control
- T/C [4]: 89 % of control

SMILES: O=C1c2ccccc2C(=O)c2c1cccc2N1CCOCC1
- T/C (endpoint: mean survival time, dose: 25.0 mg/kg/injection, schedule: Q04DX002 (ip), vehicle: Klucel (hydroxypropylcellulose) (HPC)): 96 % of control
- T/C (endpoint: mean survival time, dose: 50.0 mg/kg/injection, schedule: Q04DX002 (ip), vehicle: Klucel (hydroxypropylcellulose) (HPC)): 102 % of control
- T/C (endpoint: mean survival time, dose: 100.0 mg/kg/injection, schedule: Q04DX002 (ip), vehicle: Klucel (hydroxypropylcellulose) (HPC)): 102 % of control
- T/C (endpoint: mean survival time, dose: 200.0 mg/kg/injection, schedule: Q04DX002 (ip), vehicle: Klucel (hydroxypropylcellulose) (HPC)): 96 % of control

SMILES: CSc1ncnc2c1c1c(N)ncnc1n2C1OC(CO)C(O)C1O (stereo unspecified)
- T/C (endpoint: mean survival time, dose: 12.5 mg/kg/injection, schedule: Q01DX005 (ip), vehicle: other): 107 % of control
- T/C (endpoint: mean survival time, dose: 25.0 mg/kg/injection, schedule: Q01DX005 (ip), vehicle: other): 101 % of control
- T/C (endpoint: mean survival time, dose: 50.0 mg/kg/injection, schedule: Q01DX005 (ip), vehicle: other): 95 % of control
- T/C (endpoint: mean survival time, dose: 100.0 mg/kg/injection, schedule: Q01DX005 (ip), vehicle: other): 103 % of control
- T/C (endpoint: mean survival time, dose: 200.0 mg/kg/injection, schedule: Q01DX005 (ip), vehicle: other): 109 % of control

SMILES: O=C1N[C@H]2[C@H](O)[C@H](O)[C@@H](O)[C@H](O)[C@@H]2c2cc3c(c(O)c21)OCO3
- T/C (endpoint: median survival time, dose: 0.38 mg/kg/injection, schedule: Q01DX009 (ip), vehicle: saline + alcohol): 120 % of control
- T/C (endpoint: median survival time, dose: 0.75 mg/kg/injection, schedule: Q01DX009 (ip), vehicle: saline + alcohol): 122 % of control
- T/C (endpoint: median survival time, dose: 1.5 mg/kg/injection, schedule: Q01DX009 (ip), vehicle: saline + alcohol): 121 % of control

SMILES: CNCCN1CCC(Cc2ccccc2)CC1
- T/C [2]: 102 % of control
- T/C [3]: 100 % of control
- T/C (endpoint: mean survival time, dose: 200.0 mg/kg/injection, schedule: Q01DX009 (ip), vehicle: saline): 106 % of control

SMILES: CCc1ccc(C2=C(O)C(=O)C(c3ccccc3)=C(O)C2=O)cc1
- T/C (endpoint: mean survival time, dose: 3.12 mg/kg/injection, schedule: Q01DX009 (ip), vehicle: Klucel (hydroxypropylcellulose) (HPC)): 97 % of control
- T/C (endpoint: mean survival time, dose: 6.25 mg/kg/injection, schedule: Q01DX009 (ip), vehicle: Klucel (hydroxypropylcellulose) (HPC)): 100 % of control
- T/C (endpoint: mean survival time, dose: 12.5 mg/kg/injection, schedule: Q01DX009 (ip), vehicle: Klucel (hydroxypropylcellulose) (HPC)): 100 % of control
- T/C (endpoint: mean survival time, dose: 25.0 mg/kg/injection, schedule: Q01DX009 (ip), vehicle: Klucel (hydroxypropylcellulose) (HPC)): 97 % of control
- T/C (endpoint: mean survival time, dose: 50.0 mg/kg/injection, schedule: Q01DX009 (ip), vehicle: Klucel (hydroxypropylcellulose) (HPC)): 100 % of control
- T/C [5]: 95 % of control

SMILES: O=[N+]([O-])c1cccc(C[n+]2ccccc2C2OCCO2)c1
- T/C (endpoint: mean survival time, dose: 6.25 mg/kg/injection, schedule: Q01DX009 (ip), vehicle: saline): 101 % of control
- T/C (endpoint: mean survival time, dose: 12.5 mg/kg/injection, schedule: Q01DX009 (ip), vehicle: saline): 101 % of control
- T/C (endpoint: mean survival time, dose: 12.5 mg/kg/injection, schedule: Q04DX003 (ip), vehicle: saline): 104 % of control
- T/C (endpoint: mean survival time, dose: 25.0 mg/kg/injection, schedule: Q01DX009 (ip), vehicle: saline): 96 % of control
- T/C (endpoint: mean survival time, dose: 25.0 mg/kg/injection, schedule: Q04DX003 (ip), vehicle: saline): 114 % of control

SMILES: O=C(Nc1ccccc1C(F)(F)F)OCCOc1ccc(Br)cc1
- T/C [5]: 100 % of control
- T/C (endpoint: mean survival time, dose: 200.0 mg/kg/injection, schedule: Q01DX009 (ip), vehicle: Klucel (hydroxypropylcellulose) (HPC)): 103 % of control
- T/C (endpoint: mean survival time, dose: 400.0 mg/kg/injection, schedule: Q01DX009 (ip), vehicle: Klucel (hydroxypropylcellulose) (HPC)): 87 % of control

SMILES: [O-][n+]1c2ccccc2c(Oc2ccccc2)c2ccc3ccccc3c21
- T/C (endpoint: mean survival time, dose: 25.0 mg/kg/injection, schedule: Q04DX003 (ip), vehicle: saline with Tween-80): 98 % of control
- T/C (endpoint: mean survival time, dose: 50.0 mg/kg/injection, schedule: Q04DX003 (ip), vehicle: saline with Tween-80): 95 % of control
- T/C [1]: 86 % of control

SMILES: CC(C)(C)c1ccc(S(=O)(=O)CC(=O)O)cc1
- T/C (endpoint: mean survival time, dose: 75.0 mg/kg/injection, schedule: Q01DX001 (ip), vehicle: other): 104 % of control
- T/C [1]: 104 % of control
- T/C (endpoint: mean survival time, dose: 150.0 mg/kg/injection, schedule: Q01DX001 (ip), vehicle: other): 100 % of control
- T/C [4]: 102 % of control
- T/C (endpoint: mean survival time, dose: 300.0 mg/kg/injection, schedule: Q01DX001 (ip), vehicle: other): 98 % of control
- T/C (endpoint: mean survival time, dose: 400.0 mg/kg/injection, schedule: Q04DX003 (ip), vehicle: saline with Tween-80): 104 % of control
